# According to patent publication US4698300A, “Process and reagent for the determination of α-amylase” (Merck Patent Gesellschaft mit beschrankter Haftung, priority 1983, dated 1987):
# Experiments:
# [1] = pH dependency of the absorption; assay type: physicochemical; details: reagent solution adjusted to pH 7.1, pH increased and decreased stepwise, FIG. 2, versus 4-nitrophenol
# Experimental: Determination of α-amylase, pH dependency of the absorption
# Under the same conditions as in Example 1, there are measured the extinctions of two reagent solutions adjusted to a pH value of 7.1, one of which contains 2-chloro-4-nitrophenol, the other 4-nitrophenol.
# α-amylase = assay: determination of α-amylase, time-reaction curve with α-glucosidase and β-glucosidase, extinction at 405 nm; assay type: biochemical; details: for extinction change per minute: substrate in α-amylase determination, FIG. 1, 405 nm, 30° C.
# Experimental: For the determination of α-amylase, the reagent solution of substrate, α-glucosidase, β-glucosidase, buffer and activation agent is mixed with the sample solution and the extinction recorded at 405 nm e.g. at 30° C. Typically, 0.2-3.0 ml of reagent is mixed with 1.0-50 μl of sample for ordinary α-amylase concentrations.
# Determination of α-amylase
# A reagent composition is prepared which, per ml. of test volume, contains the following components: […]
# 2-chloro-4-nitrophenyl-β,D-
# phosphate buffer (pH 6.8)
# sodium chloride 0.05 Mol/l.
# carrying out of the test: 1 ml. reagent + 10 μl. sample
# [2] = optimum pH conditions of the α-amylase determination (6.8-7.1); cited from earlier work
compound,measurement,setting,value
O=[N+]([O-])c1ccc(O)c(Cl)c1 [2-chloro-4-nitrophenol],influence of change of the pH value on the extinction,[1],less strongly influenced by change of the pH value
"O=[N+]([O-])c1ccc(O[C@H]2O[C@H](CO)[C@@H](O[C@H]3O[C@H](CO)[C@@H](O[C@H]4O[C@H](CO)[C@@H](O[C@H]5O[C@H](CO)[C@@H](O[C@H]6O[C@H](CO)[C@@H](O[C@H]7O[C@H](CO)[C@@H](O[C@H]8O[C@H](CO)[C@@H](O)[C@H](O)[C@H]8O)[C@H](O)[C@H]7O)[C@H](O)[C@H]6O)[C@H](O)[C@H]5O)[C@H](O)[C@H]4O)[C@H](O)[C@H]3O)[C@H](O)[C@H]2O)c(Cl)c1 [2-chloro-4-nitrophenyl-α,D-maltoheptaoside, reference compound]",extinction change per minute,α-amylase,0.036
"O=[N+]([O-])c1ccc(O[C@@H]2O[C@H](CO)[C@@H](O[C@H]3O[C@H](CO)[C@@H](O[C@H]4O[C@H](CO)[C@@H](O[C@H]5O[C@H](CO)[C@@H](O[C@H]6O[C@H](CO)[C@@H](O[C@H]7O[C@H](CO)[C@@H](O[C@H]8O[C@H](CO)[C@@H](O)[C@H](O)[C@H]8O)[C@H](O)[C@H]7O)[C@H](O)[C@H]6O)[C@H](O)[C@H]5O)[C@H](O)[C@H]4O)[C@H](O)[C@H]3O)[C@H](O)[C@H]2O)c(Cl)c1 [2-chloro-4-nitrophenyl-β,D-maltoheptaoside]",increase of the change of absorption (Δ E/min.),"α-amylase; line I in comparison with line III (4-nitrophenyl-α,D-maltoheptaoside), FIG. 1, Example 1",~ 0.05
same,factor of increase of extinction change per minute,"α-amylase; relative to 4-nitrophenyl-α,D-maltoheptaoside, FIG. 1",3
same,extinction change per minute,α-amylase,above 0.075
"O=[N+]([O-])c1ccc(O[C@H]2O[C@H](CO)[C@@H](O[C@H]3O[C@H](CO)[C@@H](O[C@H]4O[C@H](CO)[C@@H](O[C@H]5O[C@H](CO)[C@@H](O[C@H]6O[C@H](CO)[C@@H](O[C@H]7O[C@H](CO)[C@@H](O[C@H]8O[C@H](CO)[C@@H](O)[C@H](O)[C@H]8O)[C@H](O)[C@H]7O)[C@H](O)[C@H]6O)[C@H](O)[C@H]5O)[C@H](O)[C@H]4O)[C@H](O)[C@H]3O)[C@H](O)[C@H]2O)cc1 [4-nitrophenyl-α,D-maltoheptaoside, reference compound]",extinction change per minute,α-amylase,0.024
O=[N+]([O-])c1ccc(O)cc1 [p-nitrophenol],liberated p-nitrophenol present as colored phenolate anion,[2],about 50%
